Measurements from patent publication US20090074766A1, “Methods of inhibiting HIV-2 infection” (priority 2007, published 2009).
Read-outs that look alike come from different tables or passages of the source.

Legend:
[1] = tested on: reporter viruses pseudotyped with HIV-1JR-FL envelope; assay type: cell-based; design: CI90: unit not given beside the values; details: for CI50 / CI90: envelope JRFL; for IC90 / IC50: 1st inhibitor alone, HIV-1 envelope JRFL
Text: HIV-1 pseudoparticles (HIV-1pp) are generated in 293T cells by transient coexpression of an HIV-1-based NL4/3luc+env− plasmid and a construct encoding HIV-1JRFL Env. The NL4/3luc+env− plasmid was obtained from the NIH AIDS Research and Reference Reagent Program (Cat. No. 3418), and the HIV-1JRFL Env was inserted into the pcDNA3.1 vector (Invitrogen). Briefly, 293T cells are calcium phosphate transfected with a 1:1 ratio of NL4/3luc+env− reporter vector and Env expression vector in Hepes buffer (Profection Mammalian Transfection Kit, Promega). After 16 h the transfection medium is aspirated and fresh cell culture medium (DMEM with 10% FBS, glutamine and antibiotics) is added and the incubation is continued at 37° C. for an additional 24-32 h. Cell culture supernatants are collected 48 h post-transfection and centrifuged at 1,400 rpm for 10 min to pellet cell debris. The viral supernatant is brought to a final concentration of 5% sucrose and stored aliquoted at −80° C.
U87-CD4-CCR5 cells were obtained from the NIH AIDS Research and Reference Program (Cat. No. 4035). These cells are maintained in culture medium (DMEM with 10% FBS, antibiotics and glutamine) containing 0.3 mg/ml G418 and 0.5 mg/ml puromycin. Cells are grown in T175-cm^2 flasks at 37° C. and diluted 1:5 every 3-4 days. For assay plate preparation, cells are trypsinized and seeded into wells of 96-well tissue-culture treated flat bottom opaque polystyrene plates (Perkin Elmer, Boston, Mass.) at a density of 3×10^3 cells/well. Plates are incubated for no more than 4 h at 37° C. in a humidified 5% CO2 incubator prior to their use in the HIV-1 pp susceptibility assay.
Fifty μl of diluted compound at 4× the desired final concentration are added per well. For compounds solubilized in DMSO, the 4× stock will contain 2% DMSO (such that the final DMSO concentration in the assay is always 0.5% for small molecules). Control wells receiving no compound are included on each plate. In addition, an AZT inhibition control is included in each assay. Compounds are tested individually and at a fixed mass or molar ratio over a broad range of concentrations.
A vial of frozen, aliquoted HIV-1pp is thawed in a 37° C. waterbath and then placed on wet ice. Virus is diluted in cold cell culture medium as necessary to achieve the desired final virus concentration in the HIV-1pp assay (about 10,000 relative light units (rlu) per well). 50 μl of diluted virus are added per well, bringing the final well volume to 200 μl. A no-virus control (minimum or background luminescence) and a no-compound control (maximum luminescence) are included on each plate. The plates are incubated for 72 h at 37° C. in a humidified 5% CO2 incubator followed by processing for luciferase signal (see below).
Assay medium is aspirated and 200 μl of PBS are added to each well. […] Assay plates are then frozen for at least 2 h at −80° C. followed by thawing at room temperature and vigorous mixing with an electronic pipettor. 25 μl from each well are transferred to an opaque 96-well plate (Costar #3922). Four replicates are pooled into the same well on the opaque plate. 100 μl of freshly thawed and reconstituted luciferase substrate (Luciferase Assay System, Promega—Cat. No. E1501) are added to each well of the plate with the electronic pipettor, and luminescence is detected immediately on a Dynex MLX plate reader set to medium gain.
The percent inhibition is derived as follows: [1−(luciferase activity in the presence of drug/luciferase activity in the absence of drug)]×100. IC50 values are determined by fitting the inhibition data with a non-linear, four-parameter, variable slope equation (GraphPad Prism, ver. 4.02; GraphPad Software, San Diego, Calif.). Upper and lower inhibition values are constrained to 100% and 0%, respectively for curve fitting. […]

[2] = tested on: reporter viruses pseudotyped with HIV-1SF162 envelope; assay type: cell-based; design: CI90: unit not given beside the values; details: for CI50 / CI90: envelope SF162; for IC50 / IC90: 1st inhibitor alone, HIV-1 envelope SF162
Text: A self-inactivating (SIN) vector was derived from the pNL4-3ΔEnv-luciferase vector (Dragic et al. 1996) by deleting 507 basepairs in the U3 region of the 3′ long terminal repeat (LTR) so as to remove the TATA box and transcription factor binding sites. The human cytomegalovirus promoter was inserted upstream of the luciferase (luc) gene to enable expression of luciferase following integration.
Reporter viruses pseudotyped with HIV-1JR-FL or HIV-1SF162 envelopes were generated by cotransfection of 293T cells with the SIN vector and the appropriate pcDNA env-expressing vector as previously described (Dragic et al. 1996). […] Cultures were incubated for 72 h at 37° C. in DMEM containing 10% fetal bovine serum, 1 mg/mL puromycin, 0.3 mg/mL geneticin, antibiotics, and 0.5% DMSO. Luciferase activity (relative light units or RLU) was measured using BrightGlo reagent (Promega, Madison, Wis.) according to the manufacturer's instructions. Percent inhibition was calculated as: (1−RLU in the presence of inhibitor/RLU in the absence of inhibitor)×100.
Experimental design and data analysis were based on the combination index (CI) method (Chou et al. 1991; Chou et al. 1984). Compounds were tested individually and in combination at a fixed molar ratio over a range of serial dilutions. […] The mutually exclusive CI formula was used for combinations of CCR5 inhibitors, while the mutually non-exclusive formula was utilized for combinations of inhibitors to distinct targets (Chou et al. 1991). Each test was conducted 4-12 times. Synergy, additivity and antagonism are indicated by CI<1, CI=1 and CI>1, respectively.

CCR5 = biological target: T1, CCR5 (Homo sapiens, UniProt P51681); assay: Competition binding: inhibition of PRO 140-PE binding to CEM.NKR-CCR5 cells (flow cytometry)
T1 construct: host or cells: CEM.NKR-CCR5 (transduced human T cell leukemia line)
T1 sequence (P51681 whole entry): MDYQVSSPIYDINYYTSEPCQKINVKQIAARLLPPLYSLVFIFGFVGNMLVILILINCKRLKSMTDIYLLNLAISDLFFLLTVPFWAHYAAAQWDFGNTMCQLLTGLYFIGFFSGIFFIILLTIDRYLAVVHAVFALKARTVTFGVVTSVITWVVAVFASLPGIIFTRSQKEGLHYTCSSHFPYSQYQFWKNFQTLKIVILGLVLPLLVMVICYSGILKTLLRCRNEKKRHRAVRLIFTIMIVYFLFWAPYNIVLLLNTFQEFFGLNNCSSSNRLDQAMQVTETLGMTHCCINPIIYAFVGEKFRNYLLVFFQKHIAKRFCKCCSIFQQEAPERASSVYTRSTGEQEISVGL
Protocol: Inhibition was assessed on the basis of both MFI (A) and percent cells gated (B).
Azide was added to block CCR5 internalization during the assay.

[3] = tested on: viruses in PRO 140-treated subjects; assay: Phase 1b: virus susceptibility of subjects' viruses (PhenoSense Assay); assay type: cell-based, HIV-1
Text: A non-limiting example of a widely used phenotypic HIV drug resistance test is the PhenoSense™ HIV assay, which measures the sensitivity of a virus to antiretroviral drugs.

[4] = labelled 1st inhibitor with 2nd inhibitor PRO 140, equimolar (1:10 PRO 140 to zidovudine or nevirapine)
[5] = labelled 1st inhibitor with 2nd inhibitor SCH-D

COc1ccnc2[nH]cc(C(=O)C(=O)N3CCN(C(=O)c4ccccc4)C[C@H]3C)c12 [BMS-378806, (R)-N-(benzoyl)-3-methyl-N′-[(4-methoxy-7-azaindol-3-yl)-oxoacetyl]-piperazine]
CI50 [1, 4]: 1.2 ± 0.38
CI90 [1, 4]: 0.74 ± 0.23
CI50 [2, 4]: 1.1 ± 0.28
CI90 [2, 4]: 0.82 ± 0.21

COC[C@@H](c1ccc(C(F)(F)F)cc1)N1CCN(C2(C)CCN(C(=O)c3c(C)ncnc3C)CC2)C[C@@H]1C [SCH-D, 1-[(4,6-dimethyl-5-pyrimidinyl)carbonyl]-4-[4-[2-methoxy-1(R)-4-(trifluoromethyl)phenyl]ethyl-3(S)-methyl-1-piperazinyl]-4-methylpiperidine]
IC90 ([1]; read-out: IC90): 44 nM
IC50 ([2]; read-out: IC50): 0.34 nM
IC90 ([2]; read-out: IC90): 14 nM
percent of cells gated for positive binding of PRO 140-PE (CCR5; result in words (FIG. 12B)): little impact

Cc1nnc(C(C)C)n1C1CC2CCC(C1)N2CC[C@H](NC(=O)C1CCC(F)(F)CC1)c1ccccc1 (stereo partly shown) [UK-427,857]
IC50 [1]: 7.4 nM
IC90 [1]: 46 nM
CI90 [1, 5]: 1.2 ± 0.15
IC50 [2]: 0.87 nM
IC90 [2]: 13 nM
CI90 [2, 5]: 0.86 ± 0.28

B1: PRO 140: humanized IgG4,κ anti-CCR5 monoclonal antibody, humanized version of murine mAb PA14 (antibody, chains of the INN, looked up, V domains shown)
VH: EVQLVESGGGLVKPGGSLRLSCAASGYTFSNYWIGWVRQAPGKGLEWIGDIYPGGNYIRNNEKFKDKTTLSADTSKNTAYLQMNSLKTEDTAVYYCGSSFGSNYVFAWFTYWGQGTLVTVSS
VL: DIVMTQSPLSLPVTPGEPASISCRSSQRLLSSYGHTYLHWYLQKPGQSPQLLIYEVSNRFSGVPDRFSGSGSGTDFTLKISRVEAEDVGVYYCSQSTHVPLTFGQGTKVEIK
IC50 ([1]; read-out: IC50): 2.2 nM
IC90 ([1]; read-out: IC90): 28 nM
CI50 [1, 4]: 1.2 ± 0.32
CI90 [1, 4]: 0.90 ± 0.15
IC50 ([2]; read-out: IC50): 1.3 nM
IC90 ([2]; read-out: IC90): 20 nM
CI50 [2, 4]: 1.0 ± 0.27
CI90 [2, 4]: 0.86 ± 0.33
EC90 (CCR5; based on percent cells gated, 5 nM PRO 140-PE): 17 nM
change in rIC50 post-treatment ([3]; all subjects): Less than 2 fold
Mean Maximum Percent Inhibition (MPI) ([3]; baseline): 99% (range: 93-100%)
Mean rIC50 ([3]; baseline): 2.0 (range: 0.83-5.1)
Mean MPI ([3]; post-treatment): 99% (range: 93-100%)
Mean rIC50 ([3]; post-treatment): 2.1 (range: 0.98-4.71)
